Reference: EP1530462B1, “1-PHENYL-2-DIMETHYLAMINOMETHYL CYCLOHEXANE COMPOUNDS USED FOR THE THERAPY OF DEPRESSIVE SYMPTOMS, PAIN, AND INCONTINENCE” (priority 2002, dated 2004)

Tested on: Maus
Experiment: Tail Suspension Test in the mouse
Type: in vivo
Source text: Der "Tail Suspension Test" detektiert antidepressive und anxiolytische Aktivität und folgt der Methode von Porsolt et al. (Porsolt R.D., Bertin A., Jalfre M., Behaviourial despair in mice: a primary screening test for antidepressants. Arch. Int. Pharmacodyn. Ther., 229, 327-336, 1977) und Stéru et al. (Stéru L., .Chermat R., Thierry B, Simon P. The Tail Suspension Test: a new method for screening antidepressants in mice. Psychopharmacology, 85, 367-370, 1985). Nagetiere, die man am Schwanz herabhängen läßt, werden schnell immobil. Antidepressiva verringern die Dauer der Immobilität, während Tranquilantien die Dauer der Immobilität verlängern. Das Verhalten der Tiere wurde über 6 Minuten beobachtet, vorzugsweise mit einem computerisierten Gerät (Itemac-TST) entwickelt von Stéru et al. (1985) (s.o.). Mehrere Mäuse wurden parallel untersucht und die Immobilitätsdauer bestimmt. Dieser Parameter ist analog zu dem im "behavioral despair"-Test (Stéru L., Chermat R., Thierry B., Mico J.A., Lenègre A., Stéru M., Simon P. Porsolt R.D., The automated Tail Suspension Test: a computerized device which differentiates psychotropic drugs. Prog. Neuropsychopharmacol. Exp. Psychiatry, 11, 659-671, 1987) verwendeten. 10-20 Mäuse wurden pro Gruppe untersucht. […]. In diesem Verhaltensmodell führen Antidepressiva wie auch in anderen Verhaltensmodellen zu einer Verkürzung der Immobilitätsphase, während Opioide wie Morphin die Immobilitätsphase verlängern. Beim Vorhandensein beider Wirkkomponenten überlagern sich beide Effekte, so daß nur noch eine geringe Motilitätsveränderung resultiert. Das wurde dadurch aufgehoben, daß die Opiatkomponente durch Vorbehandlung mit Naloxon weggeblockt wurde. Nach der Naloxonvorbehandlung trat die stimulierende Wirkung von (1R,2R)-3-(2-Dimethylaminomethyl-cyclohexyl)-phenol, die ohne Vorbehandlung nur gering war, deutlich in Erscheinung. Darum ist die Substanz, insbesondere in Kombination mit einer Schmerztherapie sehr geeignet. Die Ergebnisse dieser Untersuchungen zusammen mit Referenzsubstanzen sind in der Tabelle 2 zusammengefaßt. Tabelle 2: Wirkung von (1R,2R)-3-(2-Dimethylaminomethyl-cyclohexyl)-phenol, Imipramin und Morphin in "Tail Suspension" Test an der Maus (10 - 20 Tiere/Gruppe)

[1] = 31,6 mg/kg i.p., 30 min before test

SMILES	Imobilitätsdauer % Änderung gegenüber der Lösungsmittelkontrolle (1,0 mg/kg i.v. alone)	Imobilitätsdauer % Änderung gegenüber der Lösungsmittelkontrolle (4,64 mg/kg i.p., 30 min before test)	Imobilitätsdauer % Änderung gegenüber der Lösungsmittelkontrolle (10,0 mg/kg i.p., 30 min before test)	Imobilitätsdauer % Änderung gegenüber der Lösungsmittelkontrolle (21,5 mg/kg i.p. + 1,0 mg/kg i.v. Naloxon (pretreatment))	Imobilitätsdauer % Änderung gegenüber der Lösungsmittelkontrolle (21,5 mg/kg i.p., 30 min before test)	Imobilitätsdauer % Änderung gegenüber der Lösungsmittelkontrolle (31,6 mg/kg i.p. + 1,0 mg/kg i.v. Naloxon (pretreatment))	Imobilitätsdauer % Änderung gegenüber der Lösungsmittelkontrolle [1]
C=CCN1CC[C@]23c4c5ccc(O)c4O[C@H]2C(=O)CC[C@@]3(O)[C@H]1C5 [Naloxon, reference compound]	-15%	–	–	–	–	–	–
CN(C)C[C@@H]1CCCC[C@H]1c1cccc(O)c1 [(1R,2R)-3-(2-Dimethylaminomethyl-cyclohexyl)-phenol]	–	+6%	+12%	-90%	+9%	-85%	-13%
CN(C)CCCN1c2ccccc2CCc2ccccc21 [Imipramin, reference compound]	–	–	–	–	–	–	-61%
